Common to all, as to format: cell-based
The target in test [1] is T1, SOAT (Homo sapiens, UniProt Q3KNW5).
T1 construct: The full-length open reading frames of NTCP, ASBT, and SOAT were cloned; expressed in transfected cells; host or cells: Flp-In T-REX HEK293 (SOAT-HEK293), tetracycline-induced
T1 sequence (Q3KNW5 1-377): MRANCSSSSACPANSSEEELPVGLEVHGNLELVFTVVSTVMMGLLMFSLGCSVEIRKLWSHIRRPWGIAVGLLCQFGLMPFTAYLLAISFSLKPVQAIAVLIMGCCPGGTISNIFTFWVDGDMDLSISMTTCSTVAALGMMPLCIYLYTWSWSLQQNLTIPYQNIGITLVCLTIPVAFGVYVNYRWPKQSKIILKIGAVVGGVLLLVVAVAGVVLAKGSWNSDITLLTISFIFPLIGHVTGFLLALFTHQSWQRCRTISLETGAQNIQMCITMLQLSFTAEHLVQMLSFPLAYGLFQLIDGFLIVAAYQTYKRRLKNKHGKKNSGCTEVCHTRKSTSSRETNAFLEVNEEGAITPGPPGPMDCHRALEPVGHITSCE
As to the kind of experiment: Transport inhibition in SOAT-HEK293 cells. The following applies: substrate inhibitors, 1 min after 5 min preincubation. The procedure: (§1) Cells were washed three times with PBS and were preincubated with the respective inhibitor in sodium transport buffer for 5 min at 37°C. Uptake was initiated by adding the respective radiolabeled substrate to the well and incubating for a fixed time as indicated in the figures at 37°C. Transport was terminated by removing the transport buffer and washing five-times with ice-cold PBS. Cell monolayers were lysed in 1 N NaOH with 0.1% SDS and the cell-associated radioactivity and protein content was determined as described above. For uptake inhibition with the myr-preS1 peptide the sodium transport buffer contained additionally MEM-amino acid solution (ThermoFisher) at 1:50 dilution.
(§2) All transport or inhibition graphs were generated with GraphPad Prism 6.0 (GraphPad). Determination of IC50 values was done by nonlinear regression analysis using the equation log (inhibitor) vs. response settings. If not stated otherwise in the legends all data represent means ± SD of at least triplicate determinations of representative experiments.
(§3) FIGURE 3 Inhibition of NTCP, ASBT, and SOAT with substrate inhibitors. Transport of [^3H]TC, [^3H]TLC, and [^3H]DHEAS was analyzed in NTCP-HEK293, ASBT-HEK293, and SOAT-HEK293 cells in the presence of the substrate inhibitors TC, TLC, and DHEAS at increasing concentrations ranging from 100 nM till 1000 µM. After 5 min of preincubation with the respective inhibitory compound, 200 nM [^3H]TLC, [^3H]TC or [^3H]DHEAS were added for additional 1 min and the cell lysates were analyzed by liquid scintillation counting. Unspecific uptake of HEK293-FlpIn cells was set to 0%. Carrier-specific uptake without inhibitor was set to 100%.
(§4) Transport of [^3H]TC, [^3H]TLC, and [^3H]DHEAS was analyzed in NTCP-HEK293, ASBT-HEK293, and SOAT-HEK293 cells in the presence of different supposed non-substrate triterpenoid inhibitors as indicated at increasing concentrations ranging from 100 nM till 1000 µM. After 5 min of preincubation with the respective inhibitory compound, 1 µM [^3H]TLC, [^3H]TC or [^3H]DHEAS were added for additional 10 min at 37°C and the cell lysates were analyzed by liquid scintillation counting. Experiments performed without inhibitor were set to 100%. Means of negative controls were subtracted to calculate net transport rates (expressed as percentage of control). Data represent means ± SD of quadruplicate determinations of representative experiments.

For the next test, the target named is T2, ASBT (Homo sapiens, UniProt Q12908).
T2 construct: The full-length open reading frames of NTCP, ASBT, and SOAT were cloned; expressed in transfected cells; host or cells: Flp-In T-REX HEK293 (ASBT-HEK293), tetracycline-induced
T2 sequence (Q12908 1-348): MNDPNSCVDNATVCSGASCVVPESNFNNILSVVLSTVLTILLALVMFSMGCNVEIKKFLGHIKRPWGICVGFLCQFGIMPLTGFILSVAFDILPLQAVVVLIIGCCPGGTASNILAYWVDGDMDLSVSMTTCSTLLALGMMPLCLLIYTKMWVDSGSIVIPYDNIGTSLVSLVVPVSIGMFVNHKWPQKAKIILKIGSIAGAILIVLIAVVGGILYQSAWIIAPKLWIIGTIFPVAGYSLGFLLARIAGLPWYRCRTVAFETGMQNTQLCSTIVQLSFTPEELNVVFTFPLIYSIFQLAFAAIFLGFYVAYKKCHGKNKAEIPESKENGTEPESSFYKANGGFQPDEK
As to the kind of experiment: Transport inhibition in ASBT-HEK293 cells. The following applies: substrate inhibitors, 1 min after 5 min preincubation. As for the experimental part: as §1, §2, §3, §4

In test [2] the target is T1, SOAT. As to the kind of experiment: Substrate screening: sodium-dependent uptake of radiolabeled compounds in SOAT-HEK293 cells. The following applies: SOAT-HEK293, vs sodium-free control. The procedure:
Stably SLC10 transporter transfected NTCP-HEK293, ASBT-HEK293, SOAT-HEK293 cells and the HEK293-FlpIn maternal cell line were seeded on 24-well plates (if not stated otherwise for individual assays). Well plates were coated with poly-D-lysine prior to seeding of 125,000 cells per well. Cells were grown with 1 ml of standard medium per well with or without tetracycline ([…]) for 72 h to induce carrier expression before respective assays were started. HEK293-FlpIn cells were cultivated with standard medium and served as control.
Uptake experiments were initiated by replacing the preincubation buffer by 500 μL transport buffer containing the radiolabeled test compound and were performed at 37°C. Transport was terminated by removing the transport buffer and washing five-times with ice-cold PBS. Cell monolayers were lysed in 1 N NaOH with 0.1% SDS and the cell-associated radioactivity was determined by liquid scintillation counting.
FIGURE 1 Comparative substrate screening for bile acids and sulfated steroids in NTCP-, ASBT-, and SOAT-HEK293 cells. Transport assays were performed with the indicated substrates in NTCP-HEK293, ABST-HEK293, SOAT-HEK293, and HEK293-FlpIn cells. Cells were washed and equilibrated with Na^+-containing transport buffer (filled bars) or with Na^+-free transport buffer (open bars) at 37°C. For uptake, cells were incubated with radiolabeled steroid compounds at a final concentration of 200 nM in Na^+-containing or Na^+-free transport buffer for 10 min. Radiolabeled bile acids were used at 1 µM concentrations and transport was analyzed over 30 min. HEK293-FlpIn cells served as additional controls. After the indicated time intervals, cells were washed with ice-cold PBS, lysed and subjected to liquid scintillation counting. […] 3-OH, trihydroxylated BAs; 2-OH, dihydroxylated BAs; 1-OH, monohydroxylated BAs.

[3] abbreviates: SOAT IC50, substrate [3H]DHEAS, 200 nM [3H]DHEAS.
Setting [4] is: SOAT IC50, substrate [3H]TLC, 200 nM [3H]TLC.

Results on three compounds are retold here after paper PMC8165160, “Substrate Specificities and Inhibition Pattern of the Solute Carrier Family 10 Members NTCP, ASBT and SOAT” (Frontiers in Molecular Biosciences, 2021).

Where a name gives a salt, the structure may show the parent alone. Read-outs that look alike come from different tables or passages of the source. Where only a bound is given, the exact number is not on record here.

In general, IC50 refers to the point on the concentration scale where inhibition reaches its midpoint.

In the case of `C[C@H](CCC(=O)NCCS(=O)(=O)O)[C@H]1CC[C@H]2[C@@H]3[C@H](O)C[C@@H]4C[C@H](O)CC[C@]4(C)[C@H]3C[C@H](O)[C@]12C` [Taurocholic acid], the IC50 at SOAT [1] (setting [3]) turned out to be 99.7 µM; against SOAT [1] (setting [4]) it was 143 µM.
On to `C[C@H](CCC(=O)NCCS(=O)(=O)O)[C@H]1CC[C@H]2[C@@H]3CC[C@@H]4C[C@H](O)CC[C@]4(C)[C@H]3CC[C@]12C` [Taurolithocholic acid], for which the IC50 at ASBT (200 nM [3H]TC, read-out: ASBT IC50, substrate [3H]TC) came to 1.9 µM; on ASBT (200 nM [3H]TLC, read-out: ASBT IC50, substrate [3H]TLC), 4 µM; at SOAT [1] (200 nM [3H]DHEAS, read-out: SOAT IC50, substrate [3H]DHEAS), 3.9 µM; on SOAT [1] (200 nM [3H]TLC, read-out: SOAT IC50, substrate [3H]TLC) it was 2.6 µM. For the same compound, the “Transport activity grading SOAT (mean uptake)” value on SOAT [2] (radiolabeled bile acids 1 µM, 30 min) was “++ (“++” for values between 500 and 1000)”.
On to `C[C@]12CC[C@H](OS(=O)(=O)O)CC1=CC[C@@H]1[C@@H]2CC[C@]2(C)C(=O)CC[C@@H]12` [DHEAS, Dehydroepiandrosterone sulfate], for which the IC50 was 453 µM on ASBT (ASBT IC50, substrate [3H]TC, 200 nM [3H]TC); greater than 1000 µM on ASBT (ASBT IC50, substrate [3H]TLC, 200 nM [3H]TLC); 51.7 µM against SOAT [1] (setting [3]); 15 µM at SOAT [1] (setting [4]). Besides, the “Transport activity grading SOAT (mean uptake)” value at SOAT [2] (radiolabeled steroid compounds 200 nM, 10 min) was “++ (“++” for values between 10 and 100)”.
